Assay results from patent US8501759B2, “Use of fibrates” (Fournier Laboratories Ireland Limited, priority 2009, dated 2013).

What was measured:
[1] = system: patients with sleep apnea syndrome; experiment: Safety (adverse events, safety laboratory, vital signs)
[2] = 160 mg tablet administered with food; cited from earlier work
[3] = system: patients with sleep apnea syndrome; experiment: Laboratory efficacy variables (lipids, glucose, fibrinogen, insulin); format: in vivo, human
Experimental: Secondary variables: % change from baseline (V2) in fasting and post-prandial TG, total cholesterol (TC), high-density lipoprotein cholesterol (HDL-C), fasting plasma glucose (FPG), fibrinogen and insulin.
TC, TG, HDL-C, glucose, fibrinogen and insulin were measured at inclusion and during the 2 hospital admissions before a lipid rich breakfast. Insulin was also measured before the lipid rich breakfast, each morning following the sleep study.
Post-prandial TG were measured 4 hours after a lipid rich breakfast.

[4] = system: patients with sleep apnea syndrome; experiment: Epworth Sleepiness Scale (ESS); format: in vivo, human; conditions: fenofibrate group, at baseline and at end of treatment; global score 0 to 24
Source text: (§1) Variables assessed as complementary analyses: cumulated duration of apnea, mean duration of apnea, duration of the longest apnea, number of non cortical micro-awakening indicators related to respiratory events/hour, number of non cortical micro-awakening indicators related to respiratory events, oxygen saturation in blood measured by pulse oximetry (SpO2) in wake state, mean SpO2 on sleep recording, minimum value of SpO2, percentage of time spent with SpO2<80%, percentage of time spent with SpO2<85%, number of tachycardia, mean duration of tachycardia, number of bradycardia, mean duration of bradycardia, mean pulse rate, standard deviation pulse rate, minimum pulse rate, maximum pulse rate, decrease in daytime sleepiness assessed by the ESS, vigilance tests (reflexive visually guided saccades, antisaccades and sustained attention test).
This scale is the most widely index used to measure sleep apnea subjectively. It is a self-administered questionnaire that asks patients their likelihood of falling asleep in 8 situations ranked from 0 (no chance of dozing), 1 (slight chance of dozing), 2 (moderate chance of dozing) to 3 (high chance of dozing). The numbers are then added together to obtain a global score between 0 and 24. A value of 10 or below is considered normal.

[5] = system: patients with sleep apnea syndrome; experiment: Sustained attention test; conditions: end of treatment (V3)
[6] = system: patients with sleep apnea syndrome; experiment: Overnight sleep study: pulse oximetry (SpO2, desaturations); format: in vivo, human
Source text: (§2) Primary variables: number of obstructive apneas, of central apneas, of mixed apneas, total number of apneas, index of apnea per sleep hour, total number of hypopneas, index of hypopnea per sleep hour, index of apnea/hypopnea per sleep hour, total number of desaturations per sleep hour (with a variation of at least 3-4%), and percentage of time spent with SpO2<90%.
as §1
Desaturation episodes were the markers of respiratory impairment. All-night recordings of arterial oxygen saturation were obtained using a cardio-respiratory pulse oximeter attached to the finger (SpO2).
Severity of obstructive sleep apnea was measured by the number of falls in SpO2 of more than 3-4% per hour of sleep. The equipment automatically selected the desaturation threshold (3 or 4%) according to the baseline SpO2 value. To further define the severity of OSA, the lowest SpO2 point and the percentage of time spent with SpO2<90% was determined.

[7] = system: patients with sleep apnea syndrome; experiment: Overnight sleep study: apnea/hypopnea recording (CID 102) in the 1-month placebo-controlled study; format: in vivo, human
Source text: This study comprised 2 phases: • a run-in period of 1 to 5 weeks, on usual diet, • a treatment period of at least 4 weeks (40 days maximum).
as §2, §1
Throughout the night, respiration was monitored by a sound pressure transducer placed on the suprasternal notch facing the trachea or thoracic strain gauges (model CID 102) (Van Surell C, Lemaigre D, Leroy M, Foucher A, Hagenmuller M P, Raffestin B. Evaluation of an ambulatory device, CID 102, in the diagnosis of obstructive sleep apnea syndrome. Eur Respir J. 1995; 8(5):795-800).
Apnea is defined as an absence of inspiratory flow for at least 10 seconds.
Hypopnea is defined as a 50% to 80% reduction in airflow combined with 3-4% oxygen desaturations.
Sleep apneas are classified as obstructive or central.
Central apneas are defined as total absence of inspiratory flow and chest/abdominal movement during the period of absence of inspiration flow.
Obstructive sleep apneas are defined by a decrease in airflow of more than 80% in the presence of paradoxical movements of the ribcage and abdomen. Similar to AHI, the obstructive and central apneas were based on definitions that require events to be associated with 3-4% desaturations.

[8] = fenofibrate group, treatment period
[9] = end of treatment (V3), ANCOVA on Log-transformed data, relative difference
[10] = end of treatment (V3), ANCOVA on non-transformed data, absolute difference
[11] = fenofibrate 145 mg group, end of treatment (V3)
[12] = ANCOVA on Log-transformed V3 values, relative difference
[13] = end of treatment (V3), ANCOVA on non-transformed data

With `CC(C)OC(=O)C(C)(C)Oc1ccc(C(=O)c2ccc(Cl)cc2)cc1` [Fenofibrate, fenofibrate] the tolerability ([1]; 4-week treatment, 145 mg once daily) was “well tolerated”, the “changes in mean values of pulse rate, DBP or SBP between baseline and end of treatment” value ([1]; either treatment group) was “no meaningful changes” and the “other safety biological variables (ALT, AST, CK), fenofibrate vs placebo” value ([1]; end of treatment) was “did not differ between the 2 groups”. For the same molecule, the “Median % change at end of treatment from baseline in RBC” value ([1]; fenofibrate group) was −2.7%, the “Median % change at end of treatment from baseline in WBC” value ([1]; fenofibrate group) was −11.6% and the “Median % change at end of treatment from baseline in hematocrit” value ([1]; fenofibrate group) was −3.2%. The “Median % change at end of treatment from baseline in hemoglobin” value ([1]; fenofibrate group) was −3.8%, the “AEs reported (kinds)” value [1, 8] was “bloating (n=1), rash (n=1), allergic rhinitis (n=1), metabolic syndrome (SAE, n=1), type 2 diabetes (n=1), and cystitis (n=1)” and the “number of AEs reported” value [1, 8] was 6. For the same molecule, the “number of patients with AEs” value [1, 8] was 3, the “number of SAE reported during the treatment period” value ([1]; fenofibrate group, hospitalized for assessment of metabolic syndrome, not related to study treatment) was 1 and the “Median % change at end of treatment from baseline in platelets” value ([1]; fenofibrate group, p=0.007 vs placebo) was “+4.7%”. For the same molecule, the “Median % change at end of treatment from baseline in creatinine” value ([1]; fenofibrate group, p=0.015 vs placebo) was “+5.9%”, the “mean values of body weight and BMI at end of treatment compared to baseline” value ([1]; in vivo) was “remained roughly unchanged” and the “AEs considered as related to study treatment” value ([1]; treatment period) was “None”. The “increase of exposure to fenofibric acid with food compared to fasting conditions” value [2] was 35%, the “effect on fasting plasma glucose (FPG)” value ([3]; end of treatment) was “no effect” and the “HDL-Cholesterol, Fenofibrate-Placebo Estimate” value [3, 9] was 2%. For the same molecule, the “Post-Prandial Triglycerides, Fenofibrate-Placebo Estimate” value [3, 9] was −26%, the “Fasting Plasma Glucose, Fenofibrate-Placebo Estimate” value [3, 10] was 0.2 mmol/L and the “Fibrinogen, Fenofibrate-Placebo Estimate” value [3, 10] was -1.7 µmol/L. The “Insulin, Fenofibrate-Placebo Estimate” value [3, 10] was 12.1 pmol/L, the “Total Cholesterol, Fenofibrate-Placebo Estimate” value [3, 10] was -0.8 mmol/L and the “Fasting Plasma Glucose, End (V3) (median)” value [3, 11] was 5.45 mmol/L. The “Fasting Triglycerides, End (V3) (median)” value [3, 11] was 2.00 mmol/L, the “Fibrinogen, End (V3) (median)” value [3, 11] was 8.82 µmol/L and the “Insulin, End (V3) (median)” value [3, 11] was 94.4 pmol/L. The “Total Cholesterol, End (V3) (median)” value [3, 11] was 4.58 mmol/L, the “Post-Prandial Triglycerides, End (V3) (median)” value ([3]; fenofibrate 145 mg group, end of treatment (V3), 4 hours after a lipid rich breakfast) was 3.27 mmol/L and the “median of the ESS” value [4] was 8.5. For the same molecule, the “Maximum latency all sarters, Fenofibrate-Placebo Estimate” value ([5]; ANCOVA on Log-transformed data, relative difference) was 7%, the “Mean latency all sarter, Fenofibrate-Placebo Estimate” value ([5]; ANCOVA on non-transformed data, absolute difference) was 3.6 ms and the “Maximum latency all sarters, End (V3) (median)” value ([5]; fenofibrate 145 mg group) was 750.0 ms. The “Minimum latency all sarters, End (V3) (median)” value ([5]; fenofibrate 145 mg group) was 295.0 ms, the “Percent false responses all sarters, End (V3) (median)” value ([5]; fenofibrate 145 mg group) was 1.1 and the “Percent omissions all sarters, End (V3) (median)” value ([5]; fenofibrate 145 mg group) was 0.0. For the same molecule, the “Standard Deviation latency all sarters, End (V3) (median)” value ([5]; fenofibrate 145 mg group) was 98.0 ms, the “Mean latency all sarter, End (V3) (median)” value ([5]; fenofibrate 145 mg group, mean of the 5 tests) was 409.7 ms and the “Number of desaturations, Fenofibrate-Placebo at end of treatment, Estimate” value [6, 12] was −23%. For the same molecule, the “Mean of SPO2 on recording, Fenofibrate-Placebo Estimate” value [6, 13] was 1.1%, the “Minimum value of SpO2, Fenofibrate-Placebo Estimate” value [6, 13] was 0.4% and the “Mean of SPO2 on recording, End (V3) (median)” value [6, 11] was 94.0%. The “Minimum value of SpO2, End (V3) (median)” value [6, 11] was 82.0%, the “Number of desaturations, End (V3) (median)” value [6, 11] was 130.0 and the “Percentage of time with SpO2 < 90%, End (V3) (median)” value [6, 11] was 3.5%. For the same molecule, the “Percentage time spent with SpO2 < 80%, End (V3) (median)” value [6, 11] was 0.0%, the “Percentage time spent with SpO2 < 85%, End (V3) (median)” value [6, 11] was 0.0% and the “SpO2 in wake state, End (V3) (median)” value [6, 11] was 95.0%. For the same molecule, the “Number of central apneas, Fenofibrate-Placebo at end of treatment, Estimate” value [7, 12] was −55%, the “Number of hypopneas, Fenofibrate-Placebo at end of treatment, Estimate” value [7, 12] was −46% and the “Number of mixed apneas, Fenofibrate-Placebo at end of treatment, Estimate” value [7, 12] was −25%. For the same molecule, the “Number of obstructive apneas, Fenofibrate-Placebo at end of treatment, Estimate” value [7, 12] was −44%, the “Number of apneas, Fenofibrate-Placebo at end of treatment, Estimate” value ([7]; ANCOVA on Log-transformed V3 values, relative difference, minus = improvement) was −35% and the “Cumulated duration of apnea, Fenofibrate-Placebo Estimate” value ([7]; end of treatment (V3), ANCOVA on Log-transformed data) was −31%. For the same molecule, the “Number of non cortical micro-awakening, Fenofibrate-Placebo Estimate” value [7, 13] was −75.7, the “Cumulated duration of apnea, End (V3) (median)” value [7, 11] was 4.5 min and the “Duration of the longest apnea, End (V3) (median)” value [7, 11] was 23.5 s. The “Mean duration of apnea, End (V3) (median)” value [7, 11] was 13.5 s, the “Number of central apneas, End (V3) (median)” value [7, 11] was 1.0 and the “Number of hypopneas, End (V3) (median)” value [7, 11] was 63.0. For the same molecule, the “Number of mixed apneas, End (V3) (median)” value [7, 11] was 1.0, the “Number of non cortical micro-awakening, End (V3) (median)” value [7, 11] was 128.0 and the “Number of obstructive apneas, End (V3) (median)” value [7, 11] was 15.0. The “Number of apneas, End (V3) (median)” value ([7]; fenofibrate 145 mg group, end of treatment (V3), total number during sleep recording) was 20.5 and the “Non cortical micro-awakening per hour, End (V3) (median)” value ([7]; fenofibrate 145 mg group, end of treatment (V3), indicators related to respiratory events) was 18.0.
